Assay [1] has as its system AsPC-1 cells (KRAS G12D mutation). Description: 3D cell proliferation assay (CellTiter Glo-3D), AsPC-1. It counts as cell-based, human. The note with it: medium with 2% FBS, read-out: AsPC-1 AP IC50. Put shortly:
(§1)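 Luminescent CellTiter-Glo 3D readout after 5-day compound exposure (3.16-fold series, 0.1% DMSO, 2% FBS medium) at 37°C on 800 cells/well plated the day before; IC50 from four-parameter curve of inhibition relative to DMSO and blank wells.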

The test system of the next assay is NCI-H441 cells. The experiment in a line: 3D cell proliferation assay (CellTiter Glo-3D), NCI-H441. In kind it is cell-based, human. As to conditions: medium with 2% FBS, read-out: H441 AP IC50. Put shortly: as §1
(Cellular ATP, detected with luciferase, serves as a proxy for viable cell number.)

The mark [2] stands for this setting: 3D cell proliferation (CellTiter Glo-3D).
Where [3] appears, read: Homo sapiens, ASPC1, 3D cell proliferation (CellTiter Glo-3D).
Where [4] appears, read: Homo sapiens, NCI-H441, 3D cell proliferation (CellTiter Glo-3D).

Like-named read-outs stand apart in the source and are kept apart here.

As for `CCn1c(-c2cc(C#CCN3CCCOCC3)cnc2C(C)C)c2c3cc(ccc31)-c1csc(n1)C[C@H](NC(=O)[C@H]1[C@H](C)[C@@H]1C)C(=O)N1CCC[C@H](N1)C(=O)OCC(C)(C)C2` (atropisomer, axis not shown; (Sa)) [Compound Z811-2, (1r,2R,3S)—N-((6^3S,4S,Z)—(Sa)-1-(5-(3-(1,4-oxazepan-4-yl)prop-1-yn-1-yl)-2-isopropylpyridin-3-yl)-1^1-ethyl-10,10-dimethyl-5,7-dioxo-6^1,6^2,6^3,6^4,6^5,6^6-hexahydro-1^1H-8-oxa-2(4,2)-thiazola-1(5,3)-indola-6(1,3)-pyridazinacycloundecaphane-4-yl)-2,3-dimethylcyclopropane-1-carboxamide], the IC50 was found to be 1.41 nM in assay [1] (setting [2]) and 0.63 nM in the assay on NCI-H441 cells (setting [2]).
Take `CCn1c(-c2cc(C#CCN(C)CCOC)cnc2[C@H](C)OC)c2c3cc(ccc31)-c1csc(n1)C[C@H](NC(=O)[C@H]1[C@H](C)[C@@H]1C)C(=O)N1CCC[C@H](N1)C(=O)OCC(C)(C)C2` (atropisomer, axis not shown; (Ra)) [Compound Z788]: the figures for the IC50 (in assay [1] (setting [2]); in the assay with NCI-H441 cells (setting [2])) were 0.78 nM and 0.28 nM, respectively.
With `CCn1c(-c2cc(C#CCN3CCCOCC3)cnc2[C@H](C)OC)c2c3cc(ccc31)-c1csc(n1)C[C@H](NC(=O)CC1CC1)C(=O)N1CCC[C@H](N1)C(=O)OCC(C)(C)C2` (atropisomer, axis not shown; (Ra)) [Compound Z915], the IC50 in assay [1] (setting [3]) is 2.82 nM; with NCI-H441 cells (setting [4]), 1.04 nM.
The like results for `CCO[C@@H](C)c1ncc(N2CCN(CCS(C)(=O)=O)CC2)cc1-c1c2c3cc(ccc3n1CC)-c1csc(n1)C[C@H](NC(=O)[C@H]1[C@H](C)[C@@H]1C)C(=O)N1CCC[C@H](N1)C(=O)OCC1(CC1)C2` (single isomer, unassigned) [Compound Z378-1] were, in that order, 14.1 nM and 3.62 nM.
The like results for `CCn1c(-c2cc(C#CCN3CCCN(C)CC3)cnc2[C@H](C)OC)c2c3cc(ccc31)-c1csc(n1)C[C@H](NC(=O)[C@H]1[C@H](C)[C@@H]1C)C(=O)N1CCC[C@H](N1)C(=O)OCC(C)(C)C2` (atropisomer, axis not shown; (Ra)) [Compound Z802, (1r,2R,3S)—N-((6^3S,4S,Z)-1^2-(5-(3-(4-methyl-1,4-diaza-1-yl)prop-1-yn-1-yl)-(Ra)-2-((S)-1-methoxyethyl)pyridin-3-yl)-1^1-ethyl-10,10-dimethyl-5,7-dioxo-6^1,6^2,6^3,6^4,6^5,6^6-hexahydro-1^1H-8-oxa-2(4,2)-thiazola-1(5,3)-indola-6(1,3)-pyridazinacycloundecaphane-4-yl)-2,3-dimethylcyclopropane-1-carboxamide] were, in that order, 0.34 nM and 0.26 nM.
The like results for `CCn1c(-c2cc(C#CCN3CCS(=O)(=O)CC3)cnc2[C@H](C)OC)c2c3cc(ccc31)-c1csc(n1)C[C@H](NC(=O)[C@H]1[C@H](C)[C@@H]1C)C(=O)N1CCC[C@H](N1)C(=O)OCC(C)(C)C2` (atropisomer, axis not shown; (Ra)) [Compound Z838, (1r,2R,3S)—N-((6^3S,4S,Z)—(Ra)-1^2-(5-(3-(1,1-dioxidothiomorpholino)prop-1-yn-1-yl)-2-((S)-1-methoxyethyl)pyridin-3-yl)-1^1-ethyl-10,10-dimethyl-5,7-dioxo-6^1,6^2,6^3,6^4,6^5,6^6-hexahydro-1^1H-8-oxa-2(4,2)-thiazola-1(5,3)-indola-6(1,3)-pyridazinacycloundecaphane-4-yl)-2,3-dimethylcyclopropane-1-carboxamide] were, in that order, 0.03 nM and 0.06 nM.
Take `CCn1c(-c2cc(C#CCN3CCN(C)C(=O)C3)cnc2[C@H](C)OC)c2c3cc(ccc31)-c1csc(n1)C[C@H](NC(=O)[C@H]1[C@H](C)[C@@H]1C)C(=O)N1CCC[C@H](N1)C(=O)OCC(C)(C)C2` (atropisomer, axis not shown; (Ra)) [Compound Z793]: the IC50 in assay [1] (setting [3]) worked out at 0.19 nM; with NCI-H441 cells (setting [4]), 0.14 nM.
For `CCn1c(-c2cc(C#CCN3CCCOCC3)cnc2[C@H](C)OC)c2c3cc(ccc31)-c1csc(n1)C[C@H](NC(=O)[C@H]1C[C@@H]1C)C(=O)N1CCC[C@H](N1)C(=O)OCC(C)(C)C2` (single isomer, unassigned) [Compound Z604], the values for the half-maximal inhibitory concentration (IC50) (in assay [1] (setting [3]); in the assay on NCI-H441 cells (setting [4])) were 0.74 nM and 0.45 nM, respectively.
As for `CCn1c(-c2cc(C#CCN3C4CCC3COC4)cnc2[C@H](C)OC)c2c3cc(ccc31)-c1csc(n1)C[C@H](NC(=O)[C@H]1[C@H](C)[C@@H]1C)C(=O)N1CCC[C@H](N1)C(=O)OCC(C)(C)C2` (atropisomer, axis not shown; (Ra)) [Compound Z711, (1r,2R,3S)—N-((6^3S,4S,Z)—(Ra)-1^2-(5-(3-(3-oxa-8-azabicyclo[3.2.1]octan-8-yl)prop-1-yn-1-yl)-2-((S)-1-methoxyethyl)pyridin-3-yl)-1^1-ethyl-10,10-dimethyl-5,7-dioxo-6^1,6^2,6^3,6^4,6^5,6^6-hexahydro-1^1H-8-oxa-2(4,2)-thiazola-1(5,3)-indola-6(1,3)-pyridazinacycloundecaphane-4-yl)-2,3-dimethylcyclopropane-1-carboxamide], the results for the IC50 (in assay [1] (setting [2]); in the assay on NCI-H441 cells (setting [2])) were 0.3 nM and 0.27 nM, respectively.
On to `CCn1c(-c2cc(N3CCN4CC5(CC5)OC[C@@H]4C3)cnc2[C@H](C)OC)c2c3cc(ccc31)-c1csc(n1)C[C@H](NC(=O)[C@H]1[C@H](C)[C@@H]1C)C(=O)N1CCC[C@H](N1)C(=O)OCC1(CC1)C2` (atropisomer, axis not shown; (Ra)) [Compound Z13], for which the results for the IC50 (in assay [1] (setting [3]); in the assay on NCI-H441 cells (setting [4])) were 5 nM and 1.2 nM, respectively.
For `CCn1c(-c2cc(C#C[C@@H]3COCCN3C)cnc2[C@H](C)OC)c2c3cc(ccc31)-c1csc(n1)C[C@H](NC(=O)[C@H]1[C@H](C)[C@@H]1C)C(=O)N1CCC[C@H](N1)C(=O)OCC(C)(C)C2` (atropisomer, axis not shown; (Ra)) [Compound Z672, (1r,2R,3S)—N-((6^3S,4S,Z)-1^1-ethyl-(Ra)-1^2-(2-((S)-1-methoxyethyl)-5-(((R)-4-methylmorpholin-3-yl)ethynyl)pyridin-3-yl)-10,10-dimethyl-5,7-dioxo-6^1,6^2,6^3,6^4,6^5,6^6hexahydro-1^1H-8-oxa-2(4,2)-thiazola-1(5,3)-indola-6(1,3)-pyridazinacycloundecaphane-4-yl)-2,3-dimethylcyclopropane-1-carboxamide] the same measures were 0.73 nM and 0.3 nM.
Take `CO[C@@H](C)c1ncc(C#CCN2CCCOCC2)cc1-c1c2c3cc(ccc3n1CC(F)(F)F)-c1csc(n1)C[C@H](NC(=O)[C@H]1[C@H](C)[C@@H]1C)C(=O)N1CCC[C@H](N1)C(=O)OCC(C)(C)C2` (atropisomer, axis not shown; (Ra)) [Compound Z700, N-((6^3S,4S,Z)-1^1-(2,2,2-trifluoroethyl)-(Ra)-1^2-(2-((S)-1-methoxyethyl)-(5-(3-(1,4-oxazepan-4-yl)prop-1-yn-1-yl))-pyridin-3-yl)-10,10-dimethyl-5,7-dioxo-6^1,6^2,6^3,6^4,6^5,6^6-hexahydro-1^1H-8-oxa-2(4,2)-thiazola-1(5,3)-indola-6(1,3)-pyridazinacycloundecaphane-4-yl)-2,3-dimethylcyclopropane-1-carboxamide]: the IC50 in assay [1] (setting [2]) is 0.18 nM; with NCI-H441 cells (setting [2]), 0.17 nM.
As to `CCn1c(-c2cc(C#CCN3CCC3)cnc2[C@H](C)OC)c2c3cc(ccc31)-c1csc(n1)C[C@H](NC(=O)[C@H]1[C@H](C)[C@@H]1C)C(=O)N1CCC[C@H](N1)C(=O)OCC(C)(C)C2` (single isomer, unassigned) [Compound Z554], the IC50 in assay [1] (setting [3]) came to 1.18 nM; in the assay on NCI-H441 cells (setting [4]), 0.83 nM.
Take `CCn1c(-c2cc(C#CCN3CCOC[C@H]3C)cnc2[C@H](C)OC)c2c3cc(ccc31)-c1csc(n1)C[C@H](NC(=O)[C@H]1[C@H](C)[C@@H]1C)C(=O)N1CCCC(N1)C(=O)OCC(C)(C)C2` (atropisomer, axis not shown; (Ra)) [Compound Z813]: the IC50 in assay [1] (setting [2]) is 0.18 nM; with NCI-H441 cells (setting [2]), 0.15 nM.
On to `CCn1c(-c2cc(N3CCN(CCS(C)(=O)=O)CC3)cnc2[C@H](C)OC)c2c3cc(ccc31)-c1csc(n1)C[C@H](NC(=O)[C@H]1[C@H](C)[C@@H]1C)C(=O)N1CCC[C@H](N1)C(=O)OCC1(CC1)C2` (single isomer, unassigned) [Compound Z367], for which the values for the concentration for half-maximal inhibition (IC50) (in assay [1] (setting [3]); in the assay with NCI-H441 cells (setting [4])) were 13.5 nM and 2.14 nM, respectively.
The like results for `CCn1c(-c2cc(C#CCN3CCC(C(F)(F)F)CC3)cnc2[C@H](C)OC)c2c3cc(ccc31)-c1csc(n1)C[C@H](NC(=O)[C@H]1[C@H](C)[C@@H]1C)C(=O)N1CCC[C@H](N1)C(=O)OCC(C)(C)C2` (atropisomer, axis not shown; (Ra)) [Compound Z778] were, in that order, 2.39 nM and 1.14 nM.
As to `CCn1c(-c2cc(C#CCN3CCCOCC3)cnc2[C@H](C)OC)c2c3cc(ccc31)-c1csc(n1)C[C@H](NC(=O)[C@H]1[C@H](C)[C@@H]1C)C(=O)N1CCC[C@H](N1)C(=O)OCC(C)(C)C2` (single isomer, unassigned) [Compound Z504], the half-inhibitory concentration (IC50) in assay [1] (setting [3]) turned out to be 0.4 nM; in the assay with NCI-H441 cells (setting [4]) it was 0.31 nM.
The like results for `CCn1c(-c2cc(C#CCN3CCCOCC3)cnc2[C@H](C)OC)c2c3cc(ccc31)-c1csc(n1)C[C@H](NC(=O)CC(C)C)C(=O)N1CCC[C@H](N1)C(=O)OCC(C)(C)C2` (single isomer, unassigned) [Compound Z803] were, in that order, 1.49 nM and 0.61 nM.

By IC50 is commonly meant the concentration needed to halve the response being measured.

(Values after patent US20260234165A1, “MACROCYCLIC COMPOUNDS, PREPARATION METHOD THEREFOR, AND USE THEREOF” (GENFLEET THERAPEUTICS (SHANGHAI) INC., priority 2004, published 2026).)
